Data on 21 compounds can be found in US8648086B2, “5,6-bicyclic heteroaryl-containing urea compounds as kinase inhibitors” (Ascepion Pharmaceuticals, Inc., priority 2009, dated 2014).

Counter-ions that a name gives are not always drawn.

For one experiment, the target named is T1, c-Met (Homo sapiens, UniProt P08581).
T1 construct: endogenous in cells; host or cells: A549 cells
As to the kind of experiment: c-Met cell-based assay (phospho-c-Met ELISA, A549 cells). As to conditions: compound at 100 nM. As for the experimental part:
A procedure for standard cell-based assay for c-Met kinase activity can be used to test compounds of this invention for their inhibitory effect on this kinase and to identify c-Met antagonists.
Specifically, a compound to be tested was first dissolved in DMSO to a concentration of 10 mM and stored at −20° C. The activity of c-Met in cells depends on the phosphorylation level at its intracellular domain induced by its ligand, Hepatocyte growth factor (HGF). In order to induce the cells to produce phosphate c-Met, paracrine HGF-dependent NSCLC (None Small Cell Lung Cancer) A549 cells were grown in DMEM with 10% FBS.
To screen compounds of this invention for their inhibitory effect on c-Met kinase, the ELISA kit (R&D Systems) was used. One day before screening procedure, A549 cells were grown in DMEM without the presence of serum. On the day of screening procedure, various concentrations of compounds (from 0.5 nM to 500 nM) were added into the culture medium. Two hours later, 20% of FBS (Fetal Bovine Serum) was added into the medium to stimulate the expression of phosphor-c-Met. After 20 minutes, cell lysate from approximately 5×10^5 A549 cells were reacted with anti-phosphor-c-Met or anti total c-Met antibody in 96 well plates. In the presence of detection antibody, the phosphor-c-Met or total c-Met can be detected with Streptavidin-HRP (R&D Systems) followed by chemiluminescence detection.
(In general: In an ELISA, binding on a coated surface is turned into a signal by an enzyme label.)

In the next experiment the target is T2, VEGFR2 (Homo sapiens, UniProt P35968).
T2 construct: expressed in transfected cells; host or cells: CHO cells, pcDNA3.1 plasmid
Description: VEGFR2 cell-based assay (phospho-VEGFR2 ELISA, transfected CHO cells). As to conditions: compound at 100 nM, read-out: % VEGFR2 kinase activity remains. As for the experimental part:
A standard cell-based assay for VEGFR2 kinase activity can be used to test compounds of this invention and to identify VEGFR2 antagonists.
Specifically, a compound to be tested was first dissolved in DMSO to a concentration of 10 mM and stored at −20° C. The activity of VEGFR2 in cells depends on the phosphorylation level at its intracellular domain induced by the ligand. In order to express VEGFR2 in the cells, full length VEGFR2 sequence was cloned into PC-DNA3.1 vector, the plasmid was then transfected into CHO cells. After 48 hours, the expression of VEGFR2 in transfected CHO cells was confirmed by regular western blotting.
To screen the compounds of this invention, the ELISA kit (R&D Systems) was used. One day before the screening, CHO cells transfected with full length VEGFR2 plasmid were grown in DMEM medium without the presence of serum. On the day of screening, various concentrations of compounds (From 0.5 nM to 500 nM) were added into DMEM medium. Two hours later, 20% of FBS (Fetal Bovine Serum) was added into the medium to stimulate the production of phosphor-VEGFR2. Cell lysate from approximately 5×10^5 transfected CHO cells were reacted with anti-phosphor-VEGFR2 or anti-total VEGFR2 antibody in 96 well plates. In the presence of detection antibody, the phosphor-VEGFR2 or total VEGFR2 were detected with Streptavidin-HRP (R&D Systems) followed by chemiluminescence detection.

T1 sequence (P08581 25-1390): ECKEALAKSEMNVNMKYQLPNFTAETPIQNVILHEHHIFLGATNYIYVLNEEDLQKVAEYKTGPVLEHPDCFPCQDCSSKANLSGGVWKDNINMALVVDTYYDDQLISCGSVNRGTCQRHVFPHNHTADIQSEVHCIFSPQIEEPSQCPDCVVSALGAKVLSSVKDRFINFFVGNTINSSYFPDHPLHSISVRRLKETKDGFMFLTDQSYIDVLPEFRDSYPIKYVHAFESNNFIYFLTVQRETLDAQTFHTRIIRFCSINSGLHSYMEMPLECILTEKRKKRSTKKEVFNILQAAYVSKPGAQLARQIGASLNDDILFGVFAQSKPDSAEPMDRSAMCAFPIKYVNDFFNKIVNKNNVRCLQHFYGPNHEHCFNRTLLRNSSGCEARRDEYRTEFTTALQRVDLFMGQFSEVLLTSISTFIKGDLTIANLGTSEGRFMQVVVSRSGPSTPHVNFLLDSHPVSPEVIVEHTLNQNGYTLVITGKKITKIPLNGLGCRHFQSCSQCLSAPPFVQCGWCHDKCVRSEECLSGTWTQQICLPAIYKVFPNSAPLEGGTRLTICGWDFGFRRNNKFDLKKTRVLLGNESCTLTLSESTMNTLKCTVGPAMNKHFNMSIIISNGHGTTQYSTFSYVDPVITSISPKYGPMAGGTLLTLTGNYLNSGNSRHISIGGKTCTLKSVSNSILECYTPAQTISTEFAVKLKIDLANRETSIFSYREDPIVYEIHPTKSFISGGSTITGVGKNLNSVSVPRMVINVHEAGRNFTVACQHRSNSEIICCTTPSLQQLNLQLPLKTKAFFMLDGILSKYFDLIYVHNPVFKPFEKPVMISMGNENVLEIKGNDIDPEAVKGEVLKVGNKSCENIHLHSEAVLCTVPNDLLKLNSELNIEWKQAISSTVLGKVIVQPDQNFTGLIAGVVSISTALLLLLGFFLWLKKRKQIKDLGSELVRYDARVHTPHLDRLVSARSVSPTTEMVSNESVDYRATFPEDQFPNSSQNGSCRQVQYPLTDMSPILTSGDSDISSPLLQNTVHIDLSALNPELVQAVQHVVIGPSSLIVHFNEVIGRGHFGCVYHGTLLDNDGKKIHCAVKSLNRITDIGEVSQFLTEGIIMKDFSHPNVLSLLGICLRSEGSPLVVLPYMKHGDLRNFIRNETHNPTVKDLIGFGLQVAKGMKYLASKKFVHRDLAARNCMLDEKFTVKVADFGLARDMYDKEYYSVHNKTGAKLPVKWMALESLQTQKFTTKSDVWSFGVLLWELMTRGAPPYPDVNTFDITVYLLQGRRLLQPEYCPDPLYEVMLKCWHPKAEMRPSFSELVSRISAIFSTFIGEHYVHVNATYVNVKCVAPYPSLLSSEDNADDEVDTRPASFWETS
T2 sequence (P35968 20-1356, species assumed): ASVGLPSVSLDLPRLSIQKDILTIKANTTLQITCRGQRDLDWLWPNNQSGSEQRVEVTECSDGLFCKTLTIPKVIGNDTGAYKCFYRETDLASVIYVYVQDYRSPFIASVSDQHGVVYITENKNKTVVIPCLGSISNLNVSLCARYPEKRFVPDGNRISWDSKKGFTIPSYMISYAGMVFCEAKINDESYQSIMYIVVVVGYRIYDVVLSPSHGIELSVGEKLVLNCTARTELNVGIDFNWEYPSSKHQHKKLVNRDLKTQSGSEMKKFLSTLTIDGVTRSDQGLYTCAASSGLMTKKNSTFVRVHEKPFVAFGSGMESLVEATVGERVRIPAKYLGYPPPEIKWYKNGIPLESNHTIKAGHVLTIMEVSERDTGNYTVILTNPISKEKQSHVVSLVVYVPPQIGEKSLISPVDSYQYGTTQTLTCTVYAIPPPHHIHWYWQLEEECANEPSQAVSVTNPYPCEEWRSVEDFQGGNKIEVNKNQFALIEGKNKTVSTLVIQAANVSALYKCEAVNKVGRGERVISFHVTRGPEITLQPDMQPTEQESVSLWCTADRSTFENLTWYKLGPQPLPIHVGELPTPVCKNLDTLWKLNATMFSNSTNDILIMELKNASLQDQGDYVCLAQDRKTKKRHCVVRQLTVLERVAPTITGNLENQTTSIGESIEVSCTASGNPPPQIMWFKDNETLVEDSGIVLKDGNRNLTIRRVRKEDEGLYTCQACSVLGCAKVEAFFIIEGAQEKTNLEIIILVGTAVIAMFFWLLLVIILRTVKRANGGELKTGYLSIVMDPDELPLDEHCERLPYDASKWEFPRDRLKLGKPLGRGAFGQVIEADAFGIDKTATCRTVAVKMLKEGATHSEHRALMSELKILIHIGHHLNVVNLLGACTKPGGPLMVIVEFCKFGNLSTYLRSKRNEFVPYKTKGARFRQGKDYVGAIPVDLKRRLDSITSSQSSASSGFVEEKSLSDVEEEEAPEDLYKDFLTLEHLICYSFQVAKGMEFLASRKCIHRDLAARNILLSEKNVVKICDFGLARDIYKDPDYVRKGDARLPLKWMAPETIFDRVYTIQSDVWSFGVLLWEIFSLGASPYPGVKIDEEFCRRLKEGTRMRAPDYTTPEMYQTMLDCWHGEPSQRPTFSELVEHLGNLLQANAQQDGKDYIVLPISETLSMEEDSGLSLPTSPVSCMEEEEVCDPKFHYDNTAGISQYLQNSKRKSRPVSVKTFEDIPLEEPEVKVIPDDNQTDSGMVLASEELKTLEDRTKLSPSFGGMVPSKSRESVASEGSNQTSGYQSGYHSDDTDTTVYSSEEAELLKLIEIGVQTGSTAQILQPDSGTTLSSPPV

As for `Cl.O=C(Nc1ccccc1F)Nc1cccc2c1ccn2Cc1c[nH]c2ncccc12` [Example 5, 1-(2-Fluorophenyl)-3-[1-(1H-pyrrolo[2,3-b]pyridin-3-ylmethyl)-1H-indol-4-yl]urea hydrochloride], at c-Met, the “% c-Met kinase activity remains” value is reported as “A (the percentage of kinase activity remains is below 70%)”. Further, the remaining activity at 0.1 µM at VEGFR2 was not below 70%.

In the case of `Cl.O=C(Nc1cccc(F)c1)Nc1cccc2c1ccn2Cc1c[nH]c2ncccc12` [Example 6, 1-(3-Fluorophenyl)-3-[1-(1H-pyrrolo[2,3-b]pyridin-3-ylmethyl)-1H-indol-4-yl]urea hydrochloride], the “% c-Met kinase activity remains” value at c-Met was “B (the percentage is greater or equal to 70%)”. Also, the remaining activity at 0.1 µM on VEGFR2 is less than 70%.

Take `Cl.O=C(Nc1ccc(F)cc1)Nc1cccc2c1ccn2Cc1c[nH]c2ncccc12` [Example 7, 1-(4-Fluorophenyl)-3-[1-(1H-pyrrolo[2,3-b]pyridin-3-ylmethyl)-1H-indol-4-yl]urea hydrochloride]: on c-Met, the “% c-Met kinase activity remains” value is “A (the percentage of kinase activity remains is below 70%)”. For the same compound, the remaining activity at 0.1 µM at VEGFR2 was less than 70%.

For the compound `O=C(Nc1ccccc1Cl)Nc1cccc2c1ccn2Cc1c[nH]c2ncccc12` [Example 8, 1-(2-Chlorophenyl)-3-[1-(1H-pyrrolo[2,3-b]pyridin-3-ylmethyl)-1H-indol-4-yl]urea hydrochloride], the “% c-Met kinase activity remains” value at c-Met is reported as “A (the percentage of kinase activity remains is below 70%)”. Further, on VEGFR2, the remaining activity at 0.1 µM was not below 70%.

`O=C(Nc1cccc(Cl)c1)Nc1cccc2c1ccn2Cc1c[nH]c2ncccc12` [Example 9, 1-(3-Chlorophenyl)-3-[1-(1H-pyrrolo[2,3-b]pyridin-3-ylmethyl)-1H-indol-4-yl]urea hydrochloride]: on c-Met, the “% c-Met kinase activity remains” value is given as “B (the percentage is greater or equal to 70%)”. The remaining activity at 0.1 µM at VEGFR2 is less than 70%.

Turning to `Cl.O=C(Nc1ccccc1Br)Nc1cccc2c1ccn2Cc1c[nH]c2ncccc12` [Example 11, 1-(2-Bromophenyl)-3-[1-(1H-pyrrolo[2,3-b]pyridin-3-ylmethyl)-1H-indol-4-yl]urea hydrochloride], on c-Met, the “% c-Met kinase activity remains” value is “A (the percentage of kinase activity remains is below 70%)”. Also, the remaining activity at 0.1 µM at VEGFR2 was not below 70%.

For `Cc1ccccc1NC(=O)Nc1cccc2c1ccn2Cc1c[nH]c2ncccc12.Cl` [Example 14, 1-(2-Methylphenyl)-3-[1-(1H-pyrrolo[2,3-b]pyridin-3-ylmethyl)-1H-indol-4-yl]urea hydrochloride], on c-Met, the “% c-Met kinase activity remains” value is “A (the percentage of kinase activity remains is below 70%)”. Also, the remaining activity at 0.1 µM on VEGFR2 is less than 70%.

In the case of `Cc1cccc(NC(=O)Nc2cccc3c2ccn3Cc2c[nH]c3ncccc23)c1.Cl` [Example 15, 1-(3-Methylphenyl)-3-[1-(1H-pyrrolo[2,3-b]pyridin-3-ylmethyl)-1H-indol-4-yl]urea hydrochloride], the “% c-Met kinase activity remains” value at c-Met is reported as “A (the percentage of kinase activity remains is below 70%)”. For the same compound, the remaining activity at 0.1 µM on VEGFR2 was less than 70%.

As for `Cc1ccc(NC(=O)Nc2cccc3c2ccn3Cc2c[nH]c3ncccc23)cc1.Cl` [Example 16, 1-(4-Methylphenyl)-3-[1-(1H-pyrrolo[2,3-b]pyridin-3-ylmethyl)-1H-indol-4-yl]urea hydrochloride], on c-Met, the “% c-Met kinase activity remains” value is listed as “A (the percentage of kinase activity remains is below 70%)”. Also, the remaining activity at 0.1 µM at VEGFR2 was not below 70%.

Turning to `COc1ccccc1NC(=O)Nc1cccc2c1ccn2Cc1c[nH]c2ncccc12.Cl` [Example 17, 1-(2-Methoxyphenyl)-3-[1-(1H-pyrrolo[2,3-b]pyridin-3-ylmethyl)-1H-indol-4-yl]urea hydrochloride], the “% c-Met kinase activity remains” value on c-Met is given as “A (the percentage of kinase activity remains is below 70%)”. Also, at VEGFR2, the remaining activity at 0.1 µM was less than 70%.

Turning to `COc1cccc(NC(=O)Nc2cccc3c2ccn3Cc2c[nH]c3ncccc23)c1.Cl` [Example 18, 1-(3-Methoxyphenyl)-3-[1-(1H-pyrrolo[2,3-b]pyridin-3-ylmethyl)-1H-indol-4-yl]urea hydrochloride], the “% c-Met kinase activity remains” value at c-Met is “A (the percentage of kinase activity remains is below 70%)”. Also, at VEGFR2, the remaining activity at 0.1 µM was less than 70%.

Turning to `COc1ccc(NC(=O)Nc2cccc3c2ccn3Cc2c[nH]c3ncccc23)cc1.Cl` [Example 19, 1-(4-Methoxyphenyl)-3-[1-(1H-pyrrolo[2,3-b]pyridin-3-ylmethyl)-1H-indol-4-yl]urea hydrochloride], at c-Met, the “% c-Met kinase activity remains” value was “A (the percentage of kinase activity remains is below 70%)”. In addition, the remaining activity at 0.1 µM on VEGFR2 is less than 70%.

As to `Cl.O=C(Nc1ccccc1OC(F)(F)F)Nc1cccc2c1ccn2Cc1c[nH]c2ncccc12` [Example 20, 1-(2-Trifluoromethoxyphenyl)-3-[1-(1H-pyrrolo[2,3-b]pyridin-3-ylmethyl)-1H-indol-4-yl]urea hydrochloride], on c-Met, the “% c-Met kinase activity remains” value is “A (the percentage of kinase activity remains is below 70%)”. Also, the remaining activity at 0.1 µM on VEGFR2 was less than 70%.

Regarding `Cl.O=C(Nc1ccccc1C(F)(F)F)Nc1cccc2c1ccn2Cc1c[nH]c2ncccc12` [Example 23, 1-(2-Trifluoromethylphenyl)-3-[1-(1H-pyrrolo[2,3-b]pyridin-3-ylmethyl)-1H-indol-4-yl]urea hydrochloride], the “% c-Met kinase activity remains” value on c-Met is listed as “A (the percentage of kinase activity remains is below 70%)”. The remaining activity at 0.1 µM on VEGFR2 was less than 70%.

Take `Cl.O=C(Nc1cccc(C(F)(F)F)c1)Nc1cccc2c1ccn2Cc1c[nH]c2ncccc12` [Example 24, 1-(3-Trifluoromethylphenyl)-3-[1-(1H-pyrrolo[2,3-b]pyridin-3-ylmethyl)-1H-indol-4-yl]urea hydrochloride]: the “% c-Met kinase activity remains” value on c-Met is reported as “A (the percentage of kinase activity remains is below 70%)”. The remaining activity at 0.1 µM on VEGFR2 is less than 70%.

On to `Cl.O=C(Nc1ccc(C(F)(F)F)cc1)Nc1cccc2c1ccn2Cc1c[nH]c2ncccc12` [Example 25, 1-(4-Trifluoromethylphenyl)-3-[1-(1H-pyrrolo[2,3-b]pyridin-3-ylmethyl)-1H-indol-4-yl]urea hydrochloride], for which, on c-Met, the “% c-Met kinase activity remains” value is “A (the percentage of kinase activity remains is below 70%)”. Besides, the remaining activity at 0.1 µM at VEGFR2 was not below 70%.

For `Cl.N#Cc1cccc(NC(=O)Nc2cccc3c2ccn3Cc2c[nH]c3ncccc23)c1` [Example 26, 1-(3-Cyanophenyl)-3-[1-(1H-pyrrolo[2,3-b]pyridin-3-ylmethyl)-1H-indol-4-yl]urea hydrochloride], the “% c-Met kinase activity remains” value on c-Met is reported as “A (the percentage of kinase activity remains is below 70%)”. The remaining activity at 0.1 µM at VEGFR2 was not below 70%.

Turning to `Cl.N#Cc1ccc(NC(=O)Nc2cccc3c2ccn3Cc2c[nH]c3ncccc23)cc1` [Example 27, 1-(4-Cyanophenyl)-3-[1-(1H-pyrrolo[2,3-b]pyridin-3-ylmethyl)-1H-indol-4-yl]urea hydrochloride], the “% c-Met kinase activity remains” value at c-Met is “A (the percentage of kinase activity remains is below 70%)”. Besides, the remaining activity at 0.1 µM on VEGFR2 was less than 70%.

As for `Cl.O=C(Nc1ccccc1)Nc1cccc2c1ccn2Cc1ccnc2[nH]ccc12` [Example 33, 1-Phenyl-3-[1-(1H-pyrrolo[2,3-b]pyridin-4-ylmethyl)-1H-indol-4-yl]urea hydrochloride], at c-Met, the “% c-Met kinase activity remains” value is reported as “B (the percentage is greater or equal to 70%)”. For the same compound, the remaining activity at 0.1 µM on VEGFR2 is less than 70%.

With `Cl.O=C(Nc1ccccc1F)Nc1cccc2c1ccn2Cc1ccnc2[nH]ccc12` [Example 34, 1-(2-Fluorophenyl)-3-[1-(1H-pyrrolo[2,3-b]pyridin-4-ylmethyl)-1H-indol-4-yl]urea hydrochloride], the “% c-Met kinase activity remains” value on c-Met is “B (the percentage is greater or equal to 70%)”. On VEGFR2, the remaining activity at 0.1 µM was less than 70%.

As for `O=C(Nc1ccccc1Cl)Nc1cccc2c1ccn2Cc1ccnc2[nH]ccc12` [Example 37, 1-(2-Chlorophenyl)-3-[1-(1H-pyrrolo[2,3-b]pyridin-4-ylmethyl)-1H-indol-4-yl]urea hydrochloride], at c-Met, the “% c-Met kinase activity remains” value was “A (the percentage of kinase activity remains is below 70%)”. At VEGFR2, the remaining activity at 0.1 µM is less than 70%.
